For five compounds, EC50 results are on record in patent US10414811B2, “Protease-resistant lipidated GLP-1 analogs” (MEDIMMUNE LIMITED, priority 2015, dated 2019).

Where two headings read alike, the source gives them in different places. Numbered stars: 1 amine (or outer) side, 2 acyl side, 3 side chain; on linkers, the order of the positions; unused ones are H or OH. Square brackets hold non-standard residues; d marks the D form. Side chains are listed from the residue outwards. Peptide text beside a SMILES is read from it. * marks the point of attachment. C18 diacid = O=C(O)CCCCCCCCCCCCCCCCC(=O)*; γGlu = O=C(O)[C@H](CCC(=O)[*:2])N[*:1]; αMeF = C[C@](N)(Cc1ccccc1)C(=O)O; αMeK = C[C@](N)(CCCCN)C(=O)O; αMeS = C[C@](N)(CO)C(=O)O; AEEA = NCCOCCOCC(=O)O; Aib = CC(C)(N)C(=O)O Where only a bound is given, the exact number is not on record here.

Type in all cases: cell-based
The target in test [1] is T1, human glucose-dependent insulinotropic peptide receptor (GIPR) (Homo sapiens, UniProt P48546).
T1 construct: expressed in transfected cells
T1 sequence (P48546 22-466): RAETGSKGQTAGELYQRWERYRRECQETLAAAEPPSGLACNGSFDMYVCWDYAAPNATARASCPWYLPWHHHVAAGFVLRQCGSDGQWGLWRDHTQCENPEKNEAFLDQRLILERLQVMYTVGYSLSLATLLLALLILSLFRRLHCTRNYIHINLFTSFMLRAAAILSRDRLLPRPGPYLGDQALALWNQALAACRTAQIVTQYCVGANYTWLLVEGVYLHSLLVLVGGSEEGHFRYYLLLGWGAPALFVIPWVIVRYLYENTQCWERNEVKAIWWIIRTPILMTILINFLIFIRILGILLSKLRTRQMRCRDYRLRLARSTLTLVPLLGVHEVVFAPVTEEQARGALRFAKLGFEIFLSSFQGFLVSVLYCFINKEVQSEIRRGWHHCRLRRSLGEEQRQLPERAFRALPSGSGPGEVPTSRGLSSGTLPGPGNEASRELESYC
The experiment in a line: cAMP assay, human GIPR cells. The gist of the method:
(§1)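 Peptide-stimulated cAMP measured by two-step HTRF after a 30 min room-temperature incubation with receptor-expressing cells (hGLP-1R, hGIPR at 1×10^5 cells/ml; hGCGR at 2×10^5 cells/ml). Duplicate dilutions; EC50 from 4-parameter logistic fit of % Delta F.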

Test [2] deals with T2, human GLP-1 receptor (GLP-1R) (Homo sapiens, UniProt P43220).
T2 construct: expressed in transfected cells
The test can be described thus: cAMP assay, human GLP-1R cells. In a few lines: as §1
A general note: cAMP levels reflect the balance of adenylyl cyclase and phosphodiesterase activity.

The target in test [3] is T3, GLP-1R (INS1e assay) (Rattus norvegicus, UniProt P32301).
T3 construct: endogenous in cells; host or cells: INS-1E cells
T3 sequence (P32301 22-463): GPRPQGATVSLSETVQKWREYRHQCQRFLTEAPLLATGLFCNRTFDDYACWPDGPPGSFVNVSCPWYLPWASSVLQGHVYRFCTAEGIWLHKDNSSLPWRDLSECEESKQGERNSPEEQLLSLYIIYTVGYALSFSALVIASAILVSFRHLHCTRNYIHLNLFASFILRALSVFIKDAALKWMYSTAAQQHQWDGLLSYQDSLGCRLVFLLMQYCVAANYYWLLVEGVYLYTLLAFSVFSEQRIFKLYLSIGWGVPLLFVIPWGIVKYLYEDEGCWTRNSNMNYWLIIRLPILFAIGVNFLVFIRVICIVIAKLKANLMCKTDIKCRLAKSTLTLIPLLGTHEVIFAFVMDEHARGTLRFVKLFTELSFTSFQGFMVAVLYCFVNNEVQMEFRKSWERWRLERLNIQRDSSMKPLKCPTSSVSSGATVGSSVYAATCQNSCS
The experiment in a line: INS1e assay, cAMP activity at GLP-1R. As to conditions: mono-lipidated peptides. The gist of the method: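 It pairs cAMP-d2 acceptor with anti-cAMP cryptate donor, both prepared 1/20 in conjugate/lysis buffer, applied as a two-step protocol.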

The target in test [4] is T4, human glucagon receptor (GCGR) (Homo sapiens, UniProt P47871).
T4 construct: expressed in transfected cells
The test can be described thus: cAMP assay, human GCGR cells. In a few lines:
as §1

The mark [5] stands for this setting: cAMP assay, first determination (n1), read-out: Primary assay EC50 GIP-R (n1).
Setting [6] is: cAMP assay, second determination (n2), read-out: Primary assay EC50 GIP-R (n2).
[7] abbreviates: cAMP assay, first determination (n1), read-out: Primary assay EC50 GLP-1R n1.
The mark [8] stands for this setting: mean of n1 and n2, read-out: INS1e assay EC50 Mean pM GLP-1R.
Where [9] appears, read: replicate n1, read-out: INS1e assay EC50 GLP-1R n1.
Setting [10] is: replicate n2, read-out: INS1e assay EC50 GLP-1R n2.
Where [11] appears, read: cAMP assay, first determination (n1), read-out: Primary assay EC50 Gluc-R (n1).
[12] abbreviates: cAMP assay, second determination (n2), read-out: Primary assay EC50 Gluc-R (n2).
Where [13] appears, read: cAMP assay, second determination (n2), read-out: Primary assay EC50 GLP-1R n2.
Setting [14] is: mean of n1 and n2, read-out: Mean pM GLP-1R.

T4 sequence (P47871 26-477): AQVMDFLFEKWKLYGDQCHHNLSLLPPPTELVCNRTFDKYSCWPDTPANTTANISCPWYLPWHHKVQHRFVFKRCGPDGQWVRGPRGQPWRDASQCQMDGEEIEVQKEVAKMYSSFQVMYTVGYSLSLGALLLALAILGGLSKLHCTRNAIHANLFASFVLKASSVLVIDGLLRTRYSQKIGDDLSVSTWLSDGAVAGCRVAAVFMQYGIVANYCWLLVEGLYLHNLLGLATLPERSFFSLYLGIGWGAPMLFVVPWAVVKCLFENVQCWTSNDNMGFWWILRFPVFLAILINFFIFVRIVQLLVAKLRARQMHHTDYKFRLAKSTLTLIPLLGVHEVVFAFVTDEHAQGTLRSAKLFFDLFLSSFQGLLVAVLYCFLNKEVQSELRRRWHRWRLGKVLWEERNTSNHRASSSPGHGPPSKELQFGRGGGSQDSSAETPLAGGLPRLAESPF
T2 sequence (P43220 24-463): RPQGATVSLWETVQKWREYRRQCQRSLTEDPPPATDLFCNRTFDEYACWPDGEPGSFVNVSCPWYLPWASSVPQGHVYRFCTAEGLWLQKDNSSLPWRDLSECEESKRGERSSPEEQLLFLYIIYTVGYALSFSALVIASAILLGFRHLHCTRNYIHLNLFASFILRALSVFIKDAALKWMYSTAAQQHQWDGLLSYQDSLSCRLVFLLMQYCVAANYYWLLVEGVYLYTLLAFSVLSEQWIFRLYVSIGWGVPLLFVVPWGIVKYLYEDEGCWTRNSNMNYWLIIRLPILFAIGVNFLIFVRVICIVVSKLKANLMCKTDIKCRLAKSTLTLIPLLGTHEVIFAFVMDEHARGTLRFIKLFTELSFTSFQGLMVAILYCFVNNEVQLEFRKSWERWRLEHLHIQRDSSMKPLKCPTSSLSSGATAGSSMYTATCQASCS

For the compound `CC[C@H](C)[C@H](NC(=O)[C@](C)(Cc1ccccc1)NC(=O)[C@H](CCC(=O)O)NC(=O)[C@](C)(CCCCN)NC(=O)[C@H](C)NC(=O)[C@H](C)NC(=O)[C@H](CCC(=O)O)NC(=O)CNC(=O)[C@H](CCC(=O)O)NC(=O)[C@H](CC(C)C)NC(=O)[C@](C)(Cc1ccccc1)NC(=O)[C@H](CO)NC(=O)[C@](C)(CO)NC(=O)[C@@H](NC(=O)[C@H](CC(=O)O)NC(=O)[C@H](CO)NC(=O)[C@@H](NC(=O)[C@](C)(Cc1ccccc1)NC(=O)[C@H](CO)NC(=O)CNC(=O)[C@H](CCC(=O)O)NC(=O)C(C)(C)NC(=O)[C@@H](N)Cc1c[nH]cn1)[C@@H](C)O)C(C)C)C(=O)N[C@@H](C)C(=O)N[C@@](C)(Cc1ccccc1)C(=O)N[C@H](C(=O)N[C@H](C(=O)N[C@@](C)(CCCCN)C(=O)N[C@@H](CCCCNC(=O)COCCOCCNC(=O)COCCOCCNC(=O)CC[C@H](NC(=O)CCCCCCCCCCCCCCCCC(=O)O)C(=O)O)C(=O)NCC(N)=O)C(C)C)C(C)C` [compound 100] (H-H[Aib]EGS[αMeF]TSDV[αMeS]S[αMeF]LEGEAA[αMeK]E[αMeF]IA[αMeF]VV[αMeK]K([AEEA-AEEA-γGlu-C18 diacid])G-NH2), the EC50 in test [1] (setting [5]) was at least 25 nM; in test [1] (setting [6]), at least 24.9 nM; in test [2] (setting [7]) it was 16 pM; in test [3] (setting [8]), 822 pM; in test [3] (setting [9]), 233 pM; in test [3] (setting [10]) it was 1410 pM. Further, the results for the EC50 in test [4] (setting [11]) and in test [4] (setting [12]) were at least 25 nM and at least 24.9 nM, respectively.

As for `CCCCCCCCCCCCCCCCCC(=O)N[C@@H](CCC(=O)N[C@@H](CCC(=O)N[C@@H](CCC(=O)NCCCC[C@H](NC(=O)[C@@H](NC(=O)[C@@H](NC(=O)[C@](C)(Cc1ccccc1)NC(=O)[C@H](C)NC(=O)[C@@H](NC(=O)[C@](C)(Cc1ccccc1)NC(=O)[C@H](CCC(=O)O)NC(=O)[C@](C)(CCCCN)NC(=O)[C@H](C)NC(=O)[C@H](C)NC(=O)[C@H](CCC(=O)O)NC(=O)CNC(=O)[C@H](CCC(=O)O)NC(=O)[C@H](CC(C)C)NC(=O)[C@](C)(Cc1ccccc1)NC(=O)[C@H](CO)NC(=O)[C@](C)(CO)NC(=O)[C@@H](NC(=O)[C@H](CC(=O)O)NC(=O)[C@H](CO)NC(=O)[C@@H](NC(=O)[C@](C)(Cc1ccccc1)NC(=O)[C@H](CO)NC(=O)CNC(=O)[C@H](CCC(=O)O)NC(=O)C(C)(C)NC(=O)[C@@H](N)Cc1c[nH]cn1)[C@@H](C)O)C(C)C)[C@@H](C)CC)C(C)C)C(C)C)C(=O)NCC(=O)NCC(N)=O)C(=O)O)C(=O)O)C(=O)O` [compound 184], the EC50 in test [1] (setting [5]) was at least 26 nM; in test [1] (setting [6]), at least 26 nM; in test [2] (setting [7]), 47 pM; in test [2] (setting [13]) it was 12 pM; in test [2] (setting [14]), 29.5 pM; in test [3] (setting [8]) it was 426 pM. Also, the EC50 in test [3] (setting [9]) was 351 pM; in test [3] (setting [10]) it was 501 pM; in test [4] (setting [11]), at least 26 nM; in test [4] (setting [12]) it was at least 26 nM.

Take `CCCCCCCCCCCCCCCCCC(=O)NCCOCCOCC(=O)NCCOCCOCC(=O)NCCOCCOCC(=O)NCCCC[C@H](NC(=O)[C@@H](NC(=O)[C@@H](NC(=O)[C@](C)(Cc1ccccc1)NC(=O)[C@H](C)NC(=O)[C@@H](NC(=O)[C@](C)(Cc1ccccc1)NC(=O)[C@H](CCC(=O)O)NC(=O)[C@](C)(CCCCN)NC(=O)[C@H](C)NC(=O)[C@H](C)NC(=O)[C@H](CCC(=O)O)NC(=O)CNC(=O)[C@H](CCC(=O)O)NC(=O)[C@H](CC(C)C)NC(=O)[C@](C)(Cc1ccccc1)NC(=O)[C@H](CO)NC(=O)[C@](C)(CO)NC(=O)[C@@H](NC(=O)[C@H](CC(=O)O)NC(=O)[C@H](CO)NC(=O)[C@@H](NC(=O)[C@](C)(Cc1ccccc1)NC(=O)[C@H](CO)NC(=O)CNC(=O)[C@H](CCC(=O)O)NC(=O)C(C)(C)NC(=O)[C@@H](N)Cc1c[nH]cn1)[C@@H](C)O)C(C)C)[C@@H](C)CC)C(C)C)C(C)C)C(=O)NCC(=O)NCC(N)=O` [compound 190]: the EC50 in test [1] (first run (n1), cAMP activity, read-out: Primary assay EC50 GIP-R) is at least 26 nM; in test [1] (second run (n2), cAMP activity, read-out: Primary assay EC50 GIP-R), at least 26 nM; in test [2] (first run (n1), cAMP activity, read-out: Primary assay EC50 GLP-1R n1), 9.7 pM; in test [2] (setting [14]) it was 7.2 pM; in test [2] (second run (n2), cAMP activity, read-out: Primary assay EC50 GLP-1R n2) it was 4.7 pM; in test [3] (setting [8]), 44.1 pM. Also, the EC50 in test [3] (setting [9]) was 39.7 pM; in test [3] (setting [10]), 48.5 pM; in test [4] (first run (n1), cAMP activity of substituted and mono-lipidated peptides, read-out: Primary assay EC50 Gluc-R), at least 26 nM; in test [4] (second run (n2), cAMP activity, read-out: Primary assay EC50 Gluc-R), at least 26 nM.

In the case of `CCCCCCCCCCCC(=O)NCCOCCOCC(=O)NCCCC[C@H](NC(=O)[C@H](C)NC(=O)[C@H](C)NC(=O)[C@H](CCC(=O)O)NC(=O)CNC(=O)[C@H](CCC(=O)O)NC(=O)[C@H](CC(C)C)NC(=O)[C@](C)(Cc1ccccc1)NC(=O)[C@H](CO)NC(=O)[C@](C)(CO)NC(=O)[C@@H](NC(=O)[C@H](CC(=O)O)NC(=O)[C@H](CO)NC(=O)[C@@H](NC(=O)[C@](C)(Cc1ccccc1)NC(=O)[C@H](CO)NC(=O)CNC(=O)[C@H](CCC(=O)O)NC(=O)C(C)(C)NC(=O)[C@@H](N)Cc1c[nH]cn1)[C@@H](C)O)C(C)C)C(=O)N[C@@H](CCC(=O)O)C(=O)N[C@@](C)(Cc1ccccc1)C(=O)N[C@H](C(=O)N[C@@H](C)C(=O)N[C@@](C)(Cc1ccccc1)C(=O)N[C@H](C(=O)N[C@H](C(=O)N[C@@](C)(CCCCN)C(=O)NCC(=O)NCC(N)=O)C(C)C)C(C)C)[C@@H](C)CC` [compound 134], the EC50 in test [1] (setting [5]) was at least 28 nM; in test [1] (setting [6]), at least 28 nM; in test [2] (setting [7]), 7 pM; in test [2] (setting [13]), 4.9 pM; in test [2] (setting [14]), 6 pM; in test [3] (setting [8]), 123 pM. In addition, the EC50 in test [3] (setting [9]) is 168 pM; in test [3] (setting [10]), 77.6 pM; in test [4] (setting [11]), at least 28 nM; in test [4] (setting [12]) it was at least 28 nM.

In the case of `CCCCCCCCCCCC(=O)NCCOCCOCC(=O)NCCOCCOCC(=O)NCCOCCOCC(=O)NCCCC[C@H](NC(=O)[C@@H](NC(=O)[C@@H](NC(=O)[C@](C)(Cc1ccccc1)NC(=O)[C@H](C)NC(=O)[C@@H](NC(=O)[C@](C)(Cc1ccccc1)NC(=O)[C@H](CCC(=O)O)NC(=O)[C@](C)(CCCCN)NC(=O)[C@H](C)NC(=O)[C@H](C)NC(=O)[C@H](CCC(=O)O)NC(=O)CNC(=O)[C@H](CCC(=O)O)NC(=O)[C@H](CC(C)C)NC(=O)[C@](C)(Cc1ccccc1)NC(=O)[C@H](CO)NC(=O)[C@](C)(CO)NC(=O)[C@@H](NC(=O)[C@H](CC(=O)O)NC(=O)[C@H](CO)NC(=O)[C@@H](NC(=O)[C@](C)(Cc1ccccc1)NC(=O)[C@H](CO)NC(=O)CNC(=O)[C@H](CCC(=O)O)NC(=O)C(C)(C)NC(=O)[C@@H](N)Cc1c[nH]cn1)[C@@H](C)O)C(C)C)[C@@H](C)CC)C(C)C)C(C)C)C(=O)NCC(=O)NCC(N)=O` [compound 172], the EC50 in test [1] (setting [5]) is at least 26 nM; in test [1] (setting [6]), at least 26 nM; in test [2] (setting [7]), 1.5 pM; in test [2] (setting [14]) it was 1.1 pM; in test [3] (setting [8]), 33.8 pM; in test [3] (setting [9]), 39.6 pM. Moreover, the EC50 in test [3] (setting [10]) is 28 pM; in test [4] (setting [11]), at least 26 nM; in test [4] (setting [12]) it was at least 26 nM.
